Experimental data published in US6852503B1, “Compositions and methods for utilizing mixed substrate solutions of luminols and dioxetanes” (Pierce Biotechnology, Inc., priority 2001, dated 2005).

Key:
alkaline phosphatase = alkaline phosphatase (Bos taurus, UniProt P19111); assay: Effect of peroxidase enhancers on observed alkaline phosphatase activity in dioxetane formulation containing PBTBQ; type: biochemical; conditions: for Response, Percent: 33.3 pg alkaline phosphatase, 30 minutes, net signal relative to control solution (CDP-Star plus Nitroblock II) set to 100%; for enhancement of the observed phosphatase activity: relative to control solution
Sequence of alkaline phosphatase (P19111 20-506 limits assumed): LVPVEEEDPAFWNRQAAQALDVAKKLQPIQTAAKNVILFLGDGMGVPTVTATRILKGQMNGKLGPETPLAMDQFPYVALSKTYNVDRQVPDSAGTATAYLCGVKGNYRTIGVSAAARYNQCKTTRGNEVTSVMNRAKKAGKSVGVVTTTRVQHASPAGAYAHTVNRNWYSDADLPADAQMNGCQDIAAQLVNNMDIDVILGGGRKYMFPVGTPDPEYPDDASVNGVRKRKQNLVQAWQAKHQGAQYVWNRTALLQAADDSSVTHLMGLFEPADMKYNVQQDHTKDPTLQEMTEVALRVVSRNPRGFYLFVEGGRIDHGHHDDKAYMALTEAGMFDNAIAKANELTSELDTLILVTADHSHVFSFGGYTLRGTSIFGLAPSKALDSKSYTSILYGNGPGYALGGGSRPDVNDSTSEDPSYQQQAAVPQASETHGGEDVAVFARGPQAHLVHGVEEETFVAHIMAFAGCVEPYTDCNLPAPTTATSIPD
Experimental: (§1) A variety of known enhancers of peroxidase activity were tested for their effect on the observed alkaline phosphatase activity in a dioxetane formulation containing the PBTBQ alkaline phosphatase enhancement agent. […] 10 μl of TBS served as a background control. 40 mM stock solutions as ws-PT, ws-PT-N-C4-S-C2Cl, and ws-PT Plus (CP-Br) were prepared in water. A 50 mM solution of DMAP was prepared in water. A 20 mM ws-PT Plus (MPA Cl) was prepared in water. 40 mM solutions of MPT and CPPT were prepared in methanol. (See Table 3 for acronym identification of these peroxidase enhancers, some of which are substantially water-soluble(ws).) The control solution was prepared by mixing 2.85 ml of CDP-Star RTU (Tropix Product No. MS100R) with 0.15 ml of NitroBlock II (Tropix Product No. LNX200). For the test solutions, 112 μl of the peroxidase enhancer stock solutions were added to 3 ml of the control solution in the case of the ws-PT, MPT, ws-PT-NC4S, ws-PT-Plus (CP-Br), or CPPT; for the ws-PT-Plus (MPS-C) 224 μl of the stock was added to 3 ml of the control solution; for the DMAP, 150 μl of the stock was added to 3 ml of the control solution; for the test solution containing DMAP and ws-PT, 150 μl of the DMAP stock and 112 μl of the ws-PT stock was added to 3 ml of the control solution.
To the wells of the microplate containing the alkaline phosphatase aliquots, the control and test formulations were added at 100 μl per well, mixed for approximately one minute, and allowed to react for 30 minutes at which time the chemiluminescent signal was measured on a Berthold EGG Luminometer using a 0.1 second integration time. Table 3 illustrates the relative signal intensities obtained using the response from the control solution set to 100%. The net signal of each solution (background subtracted) was used for these calculations. […] Consequently, the relative response factors for alkaline phosphatase and peroxidase activity to each other in the present invention can be modulated by the choice of the peroxidase enhancer used in the substrate solution formulation of this invention.

[1] = Visual appearance (flocculation) of test solutions; type: physicochemical; conditions: enhancer stock added to CDP-Star RTU/NitroBlock II control solution
Experimental: as §1

| Response, Percent (alkaline phosphatase) | enhancement of the observed phosphatase activity (alkaline phosphatase) | SMILES | appearance of test solution [1] |
| --- | --- | --- | --- |
| 104% | – | O=C(O)CCCN1c2ccccc2Sc2ccccc21 [CPPT, 4-(phenothiazin-10-yl)butanoic acid] | – |
| 85% | – | C[N+](C)(C)CCCN1c2ccccc2Sc2ccc(Cl)cc21.[Br-] [ws-PT Plus (CP—Br^−), [3-(2-chlorophenothiazin-10-yl)-propyl]trimethyl-ammonium bromide] | – |
| 70% | – | C[N+](C)(C)CCCN1c2ccccc2Sc2ccccc21.[Cl-] [ws-PT Plus (MPA^+Cl^−), Trimethyl-(3-phenothiazin-10-yl-propyl)ammonium chloride] | – |
| 218% | significant enhancement | O=S(=O)([O-])CCCCN1c2ccccc2Sc2ccc(Cl)cc21.[Na+] [ws-PT—N—C4S—C2—Cl, Sodium 4-(2-chlorophenothiazin-10-yl)butane-1-sulfonate] | – |
| 198% | significant enhancement | CN1c2ccccc2Sc2ccccc21 [MPT, 10-methyl-10H-phenothiazine] | visible flocculation |

| SMILES | Response, Percent (alkaline phosphatase) | enhancement of the observed phosphatase activity (alkaline phosphatase) | appearance of test solution [1] |
| --- | --- | --- | --- |
| O=S(=O)([O-])CCCN1c2ccccc2Sc2ccccc21.[Na+] [ws-PT, Sodium (3-phenothiazine-10-yl)-propane-1-sulfonate] | 207% | significant enhancement | visible flocculation |
| CNC.c1ccncc1 [DMAP, Dimethylamine pyridine] | 99% | – | – |
